# Source: patent US9796733B2, “Imidazo-pyrazine derivatives useful as soluble guanylate cyclase activators” (Merck Sharp & Dohme Corp., priority 2014, dated 2017)
# Biological target: T1, sGC α1/β1 heterodimer (Homo sapiens, UniProt Q02108+Q02153)
# T1 construct: expressed in transfected cells; host or cells: CHO-K1 (clone #7, CHO-K1/sGC)
# T1 sequence (Q02108 1-690): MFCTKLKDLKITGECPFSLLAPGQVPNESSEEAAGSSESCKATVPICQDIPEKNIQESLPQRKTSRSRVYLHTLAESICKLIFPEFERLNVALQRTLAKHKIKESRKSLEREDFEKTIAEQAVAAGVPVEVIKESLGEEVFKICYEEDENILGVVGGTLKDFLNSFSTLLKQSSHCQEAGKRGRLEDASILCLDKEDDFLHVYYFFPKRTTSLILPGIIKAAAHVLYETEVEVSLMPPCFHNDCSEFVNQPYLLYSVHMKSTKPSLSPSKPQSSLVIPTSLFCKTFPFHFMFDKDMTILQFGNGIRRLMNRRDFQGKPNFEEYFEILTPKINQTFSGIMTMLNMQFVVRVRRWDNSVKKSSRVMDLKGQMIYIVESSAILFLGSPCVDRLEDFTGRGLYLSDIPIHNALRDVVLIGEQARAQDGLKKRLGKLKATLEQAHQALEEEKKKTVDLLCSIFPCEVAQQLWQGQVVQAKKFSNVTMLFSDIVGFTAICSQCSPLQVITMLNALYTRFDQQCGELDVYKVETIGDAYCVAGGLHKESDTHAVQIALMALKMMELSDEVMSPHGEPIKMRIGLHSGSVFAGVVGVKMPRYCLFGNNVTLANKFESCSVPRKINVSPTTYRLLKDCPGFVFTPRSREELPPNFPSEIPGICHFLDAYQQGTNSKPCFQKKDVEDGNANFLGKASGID
# T1 sequence (Q02153 1-619): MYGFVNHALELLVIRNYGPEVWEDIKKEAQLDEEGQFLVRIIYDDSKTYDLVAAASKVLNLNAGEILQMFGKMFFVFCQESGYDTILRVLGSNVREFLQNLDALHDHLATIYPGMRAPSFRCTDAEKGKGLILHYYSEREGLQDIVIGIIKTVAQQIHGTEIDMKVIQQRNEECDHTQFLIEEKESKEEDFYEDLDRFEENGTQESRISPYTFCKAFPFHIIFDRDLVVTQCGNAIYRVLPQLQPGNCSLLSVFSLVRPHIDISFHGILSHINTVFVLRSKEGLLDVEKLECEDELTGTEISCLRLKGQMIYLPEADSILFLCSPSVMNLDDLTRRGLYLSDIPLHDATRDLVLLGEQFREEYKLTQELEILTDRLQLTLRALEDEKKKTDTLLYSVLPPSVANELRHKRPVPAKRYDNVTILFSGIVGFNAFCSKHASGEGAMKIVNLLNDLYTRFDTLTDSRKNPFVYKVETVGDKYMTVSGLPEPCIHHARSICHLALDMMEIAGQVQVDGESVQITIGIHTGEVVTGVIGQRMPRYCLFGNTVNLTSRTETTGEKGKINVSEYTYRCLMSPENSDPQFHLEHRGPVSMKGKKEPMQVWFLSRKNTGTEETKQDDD
# Experiment: Cell-based sGC functional assay (CASA assay): cGMP generation in CHO-K1/sGC cells, HTRF detection
# Conditions: for Emax: CHO-K1, percent activation relative to standard Compound A in CHO-K1/sGC cells, read-out: % Act.; for EC50: inflection point (IP) of cGMP generation in CHO-K1/sGC cells, 4P fit, activity expressed as percentage of Compound A
# In short: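 cGMP was quantified by HTRF after 1 hr, 37° C exposure of thawed CHO-K1 cells expressing sGC α1/β1 to compound, with or without 1 μM DETA-NO. IBMX (0.5 mM) blocked cGMP breakdown, and DMSO was 2.5% final. Percent of standard Compound A's maximal cGMP was fitted (4P) for inflection point.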
Emax,EC50,Structure (SMILES)
80%,22 nM,"CCC1(c2ccc(F)cc2)C(=O)Nc2nc(-c3cn4c(F)cnc4c(CCC(F)(F)C(F)(F)F)n3)nc(N)c21 (stereo not shown) [Example 276A, 4-Amino-5-ethyl-2-(3-fluoro-8-(3,3,4,4,4-pentafluorobutyl)imidazo[1,2-a]pyrazin-6-yl)-5-(4-fluorophenyl)-5H-pyrrolo[2,3-d]pyrimidin-6(7H)-one]"
102%,124 nM,"CC1(c2ccc(Cl)cc2)C(=O)Nc2nc(-c3cn4ccnc4cn3)nc(N3CCC(C(F)(F)F)CC3)c21 (stereo not shown) [Example 280A, 5-(4-chlorophenyl)-2-(imidazo[1,2-a]pyrazin-6-yl)-5-methyl-4-(4-(trifluromethyl)piperdin-1-yl)-5H-pyrrolo[2,3-d]pyrimidin-6(7H)-one]"
120%,102 nM,"CC1(c2ccc(Cl)cc2)C(=O)Nc2nc(-c3cn4ccnc4cn3)nc(N3CC(F)(C4CC4)C3)c21 (stereo not shown) [Example 281A, 5-(4-chlorophenyl)-4-(3-cyclopropyl-3-fluoroazetidin-1-yl)-2-(imidazo[1,2-a]pyrazin-6-yl)-5-methyl-5H-pyrrolo[2,3-d]pyrimidin-6(7H)-one]"
153%,197 nM,"CC1(c2ccc(Cl)cc2)C(=O)Nc2nc(-c3cn4ccnc4cn3)nc(N3CC(C(F)(F)F)C3)c21 (stereo not shown) [Example 282A, 5-(4-chlorophenyl)-2-(imidazo[1,2-a]pyrazin-6-yl)-5-methyl-4-(3-(trifluromethyl)azetidin-1-yl)-5H-pyrrolo[2,3-d]pyrimidin-6(7H)-one]"
163%,56 nM,"CC1(c2ccc(Cl)cc2)C(=O)Nc2nc(-c3cn4ccnc4cn3)nc(NCC3CC3)c21 (stereo not shown) [Example 283A, 5-(4-chlorophenyl)-4-((cyclopropylmethyl)amino)-2-(imidazo[1,2-a]pyrazin-6-yl)-5-methyl-5H-pyrrolo[2,3-d]pyrimidin-6(7H)-one]"
120%,102 nM,"CC1(F)CN(c2nc(-c3cn4ccnc4cn3)nc3c2C(C)(c2ccc(Cl)cc2)C(=O)N3)C1 (stereo not shown) [Example 284A, 5-(4-chlorophenyl)-4-(3-fluoro-3-methylazetidin-1-yl)-2-(imidazo[1,2-a]pyrazin-6-yl)-5-methyl-5H-pyrrolo[2,3-d]pyrimidin-6(7H)-one]"
130%,20 nM,"CC1(c2ccc(Cl)cc2)C(=O)Nc2nc(-c3cn4ccnc4cn3)nc(NCCCC(F)(F)F)c21 (stereo not shown) [Example 285A, 5-(4-chlorophenyl)-2-(imidazo[1,2-a]pyrazin-6-yl)-5-methyl-4-((4,4,4-trifluorobutyl)amino)-5H-pyrrolo[2,3-d]pyrimidin-6(7H)-one]"
133%,376 nM,"CC1(c2ccc(Cl)cc2)C(=O)Nc2nc(-c3cn4ccnc4cn3)nc(NC3CC(F)(F)C3)c21 (stereo not shown) [Example 287A, 5-(4-chlorophenyl)-4-((3,3-difluorocyclobutyl)amino)-2-(imidazo[1,2-a]pyrazin-6-yl)-5-methyl-5H-pyrrolo[2,3-d]pyrimidin-6(7H)-one]"
119%,12 nM,"CC1(c2ccc(Cl)cc2)C(=O)Nc2nc(-c3cn4ccnc4cn3)nc(NCC(F)(F)F)c21 (stereo not shown) [Example 288A, 5-(4-chlorophenyl)-2-(imidazo[1,2-a]pyrazin-6-yl)-5-methyl-4-((2,2,2-trifluoroethyl)amino)-5H-pyrrolo[2,3-d]pyrimidin-6(7H)-one]"
106%,289 nM,"CC1(c2ccc(Cl)cc2)C(=O)Nc2nc(-c3cn4ccnc4cn3)nc(NCCC(F)(F)F)c21 (stereo not shown) [Example 289A, 5-(4-chlorophenyl)-2-(imidazo[1,2-a]pyrazin-6-yl)-5-methyl-4-((3,3,3-trifluoropropyl)amino)-5H-pyrrolo[2,3-d]pyrimidin-6(7H)-one]"
126%,786 nM,"CN(C)c1nc(-c2cn3ccnc3c(CCC(F)(F)C(F)(F)F)n2)nc2c1C(C)(c1ccc(F)cn1)C(=O)N2 (stereo not shown) [Example 291B, 4-(dimethylamino)-5-(5-fluoropyridin-2-yl)-5-methyl-2-(8-(3,3,4,4,4-pentafluorobutyl)imidazo[1,2-a]pyrazin-6-yl)-5H-pyrrolo[2,3-d]pyrimidin-6(7H)-one]"
148%,951 nM,"CC1(c2ccc(F)cn2)C(=O)Nc2nc(-c3cn4ccnc4c(CCC(F)(F)C(F)(F)F)n3)nc(NC3CC3)c21 (stereo not shown) [Example 292B, 4-(cyclopropylamino)-5-(5-fluoropyridin-2-yl)-5-methyl-2-(8-(3,3,4,4,4-pentafluorobutyl)imidazo[1,2-a]pyrazin-6-yl)-5H-pyrrolo[2,3-d]pyrimidin-6(7H)-one]"
107%,509 nM,"COCCNc1nc(-c2cn3ccnc3c(CCC(F)(F)C(F)(F)F)n2)nc2c1C(C)(c1ccc(F)cn1)C(=O)N2 (stereo not shown) [Example 293B, 5-(5-fluoropyridin-2-yl)-4-((2-methoxyethyl)amino)-5-methyl-2-(8-(3,3,4,4,4-pentafluorobutyl)imidazo[1,2-a]pyrazin-6-yl)-5H-pyrrolo[2,3-d]pyrimidin-6(7H)-one]"
89%,444 nM,"CC1(c2ccc(F)cn2)C(=O)Nc2nc(-c3cn4ccnc4c(CCC(F)(F)C(F)(F)F)n3)nc(N3CCOCC3)c21 (stereo not shown) [Example 294B, 5-(5-fluoropyridin-2-yl)-5-methyl-4-morpholino-2-(8-(3,3,4,4,4-pentafluorobutyl)imidazo[1,2-a]pyrazin-6-yl)-5H-pyrrolo[2,3-d]pyrimidin-6(7H)-one]"
96%,671 nM,"CN1CCN(c2nc(-c3cn4ccnc4c(CCC(F)(F)C(F)(F)F)n3)nc3c2C(C)(c2ccc(F)cn2)C(=O)N3)CC1 (stereo not shown) [Example 295B, 5-(5-fluoropyridin-2-yl)-5-methyl-4-(4-methylpiperazin-1-yl)-2-(8-(3,3,4,4,4-pentafluorobutyl)imidazo[1,2-a]pyrazin-6-yl)-5H-pyrrolo[2,3-d]pyrimidin-6(7H)-one]"
77%,142 nM,"COCCNc1nc(-c2cn3ccnc3c(CCC(F)(F)F)n2)nc2c1C(C)(c1ccc(Cl)cc1)C(=O)N2 (stereo not shown) [Example 296A, 5-(4-chlorophenyl)-4-((2-methyoxyethyl)amino)-5-methyl-2-(8-(3,3,3-trifluoropropyl)imidazo[1,2-a]pyrazin-6-yl)-5H-pyrrolo[2,3-d]pyrimidin-6(7H)-one]"
101%,466 nM,"CC1(c2ccc(Cl)cc2)C(=O)Nc2nc(-c3cn4ccnc4c(CCC(F)(F)F)n3)nc(N3CCOCC3)c21 (stereo not shown) [Example 297A, 5-(4-chlorophenyl)-5-methyl-4-morpholino-2-(8-(3,3,3-trifluoropropyl)imidazo[1,2-a]pyrazin-6-yl)-5H-pyrrolo[2,3-d]pyrimidin-6(7H)-one]"
114%,121 nM,"CCOC(=O)CCNc1nc(-c2cn3ccnc3c(CCC(F)(F)F)n2)nc2c1C(C)(c1ccc(Cl)cc1)C(=O)N2 (stereo not shown) [Example 298A, ethyl 3-((5-(4-chlorophenyl)-5-methyl-6-oxo-2-(8-(3,3,3-trifluoropropyl)imidazo[1,2-a]pyrazin-6-yl)-6,7-dihydro-5H-pyrrolo[2,3-d]pyrimidin-4-yl)amino)propanoate]"
114%,624 nM,"CC1(c2ccc(F)cc2)C(=O)Nc2nc(-c3cn4ccnc4c(CCC(F)(F)C(F)(F)F)n3)nc(N3CCN(S(C)(=O)=O)CC3)c21 (stereo not shown) [Example 299A, 5-(4-fluorophenyl)-5-methyl-4-(4-(methylsulfonyl)piperazin-1-yl)-2-(8-(3,3,4,4,4-pentafluorobutyl)imidazo[1,2-a]pyrazin-6-yl)-5H-pyrrolo[2,3-d]pyrimidin-6(7H)-one]"
136%,492 nM,"CC1(c2ccc(F)cc2)C(=O)Nc2nc(-c3cn4ccnc4c(CCC(F)(F)C(F)(F)F)n3)nc(N3CCSCC3)c21 (stereo not shown) [Example 300A, 5-(4-fluorophenyl)-5-methyl-2-(8-(3,3,4,4,4-pentafluorobutyl)imidazo[1,2-a]pyrazin-6-yl)-4-thiomorpholine-5H-pyrrolo[2,3-d]pyrimidin-6(7H)-one]"
